Assay results reported in patent US6645504B1, “Bystander suppression of type I diabetes by oral administration of glucagon” (AutoImmune Inc., priority 1987, dated 2003).
Several values for one entry are separate records, joined by “and”; a condition that tells them apart may be missing. Equal values may be shown once.

Experiments:
MBP specific T-cells = assay: Treatment of supernatants with anti-cytokine antibodies; format: cell-based, Lewis rats; conditions: added to spleen cells of MBP-fed animals stimulated with MBP; FIG. 2
Procedure: In Vitro Suppression Of Proliferative Responses By Supernatants. Spleen cells were removed 7-14 days after the last feeding and a single cell suspension prepared by pressing the spleens through a stainless steel mesh. For preparation of supernatants, spleen cells at a concentration of 5×10^6 cells/ml were stimulated in vitro with MBP (50 μg/ml) in 10 ml of proliferation medium. Proliferation medium consisted of RPMI 1640 (GIBCO, Grand Island, N.Y.) supplemented with 2×10^−5 M 2-mercaptoethanol, 1% sodium pyruvate, 1% penicillin and streptomycin, 1% glutamine, 1% HEPES buffer, 1% nonessential amino acids and 1% autologous serum. Supernatants were harvested at 24 hours and 100 μl added to 2.5×10^4 MBP specific T-cells, raised and maintained as previously described (Ben-Nun, A. et al., Eur. J. Immunol. 11:195-199, 1981), cultured with 5×10^5 irradiated (2500 rad) thymocytes, in 100 μl of proliferation media. MBP ([…]) was added to the culture in a volume of 20 μl. Experiments were performed in triplicate in round bottomed 96-well plates (Costar, Cambridge, Mass.). Cells were cultured for 72 hours at 37° C. in an incubator with humidified 6% CO2 and 94% air atmosphere, and each well was pulsed with 1 μCi of ^3H thymidine for the last 18 hours of culture. Cultures were harvested onto fiberglass filters using a multiharvester and counted using standard liquid scintillation techniques. […]

EAE [1] = assay: In vivo bystander suppression of EAE (MBP/CFA plus secondary antigen); parameters: species or system Lewis rats
Procedure: Immunization Of Animals. Animals were immunized with 25 μg of MBP in the footpad, emulsified in an equal volume of CFA containing 4 mg/ml of Mycobacterium tuberculosis (Difco Labs, Detroit, Mich.) in order to induce a substantial EAE disease state. For in vivo bystander suppression experiments, 50-300 μg of the secondary antigens OVA, BSA or KLH were injected subcutaneously in the same footpad in 100 μl PBS 8 hours after primary immunization with MBP CFA.
Clinical Evaluation. Animals were evaluated in a blinded fashion every day for evidence of EAE in order to correlate the clinical manifestations of Bystander Suppression with the in vitro assays described below. Clinical severity of EAE was scored as follows: 0, no disease; 1, limp tail; 2, hind limb paralysis; 3, hind limb paraplegia, incontinence; 4, tetraplegia; 5, death. Mean maximal clinical severity was calculated as previously described for each experimental group (7). Statistical analysis was performed using a one-tailed student's t test and a chi square analysis for comparing incidence between groups.
Induction Of Oral Tolerance. Animals were fed 1 mg MBP, OVA, BSA or KLH dissolved in 1 ml PBS or PBS alone, by gastric intubation using an 18-gauge stainless steel animal feeding needle (Thomas Scientific, Swedesboro, N.J.). Animals were fed five times (total dose of 5 mg), at intervals of 2-3 days with the last feeding 2 days before immunization.

MBP line = assay: Transwell culture suppression of MBP T cell line; format: cell-based, Lewis rats; conditions: MBP line + MBP
Source text: (§1) Transwell Cultures. A dual chamber transwell culture system (Costar, Cambridge, Mass.), which is 24.5 mm in diameter and consists of two compartments separated by a semi-permeable polycarbonate membrane, with a pore size of 0.4 μm, was used. The two chambers are 1 mm apart, allowing cells to be coin-cubated in close proximity without direct cell-to-cell contact. To measure in vitro suppression of proliferative responses in transwell cultures, 5×10^4 MBP- or OVA-specific line cells, raised and maintained as previously described (Ben-Nun, A. et al., Eur. J. Immunol. 11:195, 1981), were cultured with 10^6 irradiated (2,500 rad) thymocytes, in 600 μl of proliferation media in the lower well. Spleen cells from orally tolerized rats or controls (fed BSA) were added to the upper well (5×10^5 cells in 200 μl). Spleen cells were removed 7-14 days after the last feeding, and a single cell suspension was prepared by pressing the spleens through a stainless steel mesh. MBP and OVA (50 μg/ml) were added in a volume of 20 μl. […] In some experiments, modulator cells were added in the lower well together with responder cells, and in these instances modulator cells were irradiated (1,250 rad) immediately before being placed in culture. Proliferation media consisted of RPMI 1640 (Gibco Laboratories, Grand Island, N.Y.) supplemented with […] 2-mercaptoethanol, 1% sodium pyruvate, 1% penicillin and streptomycin, 1% glutamine, 1% HEPES buffer, 1% nonessential amino acids, and 1% autologous serum. Each transwell was performed in quadruplicate. The transwells were incubated at 37° C. in a humidified 6% CO2 and 94% air atmosphere for 72 hours. After 54 hours of culture, each lower well was pulsed with 4 μCi of [^3H]thymidine and at 72 hours split and reseeded to three wells in a round-bottomed 96-well plate (Costar) for harvesting onto fiberglass filters and counting using standard liquid scintillation techniques. Percent suppression =100×(1−Δ A cpm responders cultured with modulators/Δ cpm of responders).

EAE [2] = assay: Adoptive transfer of disease suppression; format: in vivo, Lewis rats; conditions: naive recipients immunized with MBP/CFA and given OVA subcutaneously; FIG. 9
Procedure: Adoptive Transfer Of Disease Suppression. In order to monitor the adoptive transfer of disease suppression occurring during Bystander Suppression donor rats were fed either 1 mg MBP, OVA, or KLH, five times at 2 day intervals and killed 7-14 days after the final feeding. Spleen cells were harvested, and incubated in vitro with the homologous antigen (50 μg/ml) in proliferation medium, for 72 hours. Cells were injected intraperitoneally: 10^8 cells for whole spleen populations or 5-6×10^7 cells for CD8− or CD4-depleted populations. Recipient animals were irradiated (250 rad) before adoptive transfer, immunized with MBP/CFA 6 hours after adoptive transfer, and challenged 8 hours later with 50 μg OVA.

TGF-β = assay: Measurement of TGF-β activity in serum-free culture supernatants of spleen cells; format: cell-based, Lewis rats; conditions: spleen cells of fed animals stimulated in vitro with the fed antigen
Procedure: Measurement Of TGF-β Activity In Serum-Free Culture Supernatants. Serum free culture supernatants were collected as previously described (Kehri, et al. J. Exp. Med. 163: 1037-1050, 1986; Wahl, et al. J. […] Thereafter cells were washed three times and resuspended in serum-free medium for the remainder of the 72 hour culture, collected, then frozen until assayed. Determination of TGF-β content and isoform type in supernatants was performed using a mink lung epithelial cell line (American Type Culture Collection, Bethesda, Md. #CCL-64) according to Danielpour et al. (supra), and confirmed by a Sandwich Enzyme Linked Immunosorbent Assay (SELISA) assay as previously described (Danielpour et al. Growth Factors 2: 61-71,1989). The percent active TGF-β was determined by assay without prior acid activation of the samples.

[3] = tested on: DTH responses to MBP or OVA; assay: Delayed type hypersensitivity (DTH) testing, Example 2; format: in vivo, Lewis rats
Procedure: Delayed Type Hypersensitivity (DTH) Testing. DTH was tested by injecting 50 μg of MBP or OVA in PBS, subcutaneously into the ear. MBP was injected in the left ear and OVA in the right ear in the same animal. Thickness, in units of 0.01 inch, was measured in a blinded fashion, before and 48 hours after challenge, using micrometer calipers (Mitutoyo, Utsunomia, Japan). Change in ear thickness before and after challenge was recorded for each animal, and results were expressed as the mean for each experimental group ± SEM; each group consisted of five animals.

[4] = tested on: rheumatoid arthritis symptoms; assay: Oral collagen in humans with rheumatoid arthritis; format: in vivo; conditions: 0.1-1.0 mg single dose daily
Source text: The above animal models can be used to establish the utility of the present invention in mammals (including humans). […] All of these human trials were attempted based on animal data using the appropriate disease model.

OVA (responder) line = assay: Transwell triggering of suppression by MBP peptides; format: cell-based, rats; conditions: peptide added to modulator well with spleen cells of MBP-fed animals; FIG. 11
Source text: as §1
The Transwell System of Example 2 above was used to identify the epitopes present on guinea pig MBP which induce the release of TGF-β from suppressor T-cells.
Peptides corresponding to guinea pig MBP residue nos.

EAE [5] = assay: I.V. tolerization with MBP and MBP peptides in EAE induced with whole guinea pig MBP; format: in vivo, SJL/J mice; conditions: days 8 and 9 post immunization, FIG. 16
Source text: FIG. 16 is a bar graph showing the effect of intravenous tolerization with MBP and disease inducing and non-inducing fragments thereof on induced EAE expression in SJL/J mice.
Finally, the suppression of EAE by I.V. tolerization with MBP and MBP peptides prior to disease expression (on days 8 and 9 post immunization) was examined.

EAE [6] = assay: EAE induced by guinea pig MBP 71-90, feeding of MBP peptides; format: in vivo, Lewis rats; conditions: fed; FIG. 14
Procedure: The effects of feeding various peptides to Lewis rats induced for EAE by guinea pig MBP residue nos. 71-90 (the major immunodominant epitope of guinea pig MBP as shown in Example 3 above) were also studied.
EAE was induced by immunizing with 0.25 mg of guinea pig MBP amino acid residue nos 71-90 in Complete Freund's Adjuvant and the effect of feeding various guinea pig MBP peptides on EAE was examined.

DTH responses = DTH responses in animals fed MBP or MBP peptides; format: in vivo, Lewis rats; conditions: FIG. 15
Source text: Guinea pig MBP peptide 131-150 was ineffective in this case. Peptides were also fed with STI which prevents their breakdown by gastric juices and enhances their biological effect. DTH responses to whole MBP were suppressed by feeding MBP or any one of the MBP-peptides 21-40, or 71-90.

[7] = tested on: MBP-primed lymphoid cells; assay: Proliferation of MBP-primed lymphoid cells in response to overlapping guinea pig MBP peptides; format: cell-based, rats; conditions: lymph node cells triggered with MBP-peptides; FIG. 10
Source text: The disease-inducing fragments (autoimmune response epitopes) of MBP were first confirmed as follows: Overlapping peptides as detailed in FIG. 10, of guinea pig MBP were obtained from commercial sources or synthesized in accordance with well-known techniques, specifically using a commercial peptide synthesis apparatus (from Applied Biosystems) and following the manufacturer's instructions. Whole MBP was then fed to rats and lymph node cells from the orally tolerized animals were triggered with the MBP-peptides. The ability of the triggered cells to induce killer T-cells was then quantitatively determined by a proliferation assay also, as described in Examples 1 and 2, and by testing the ability of the proliferating cells to transfer the disease.

[8] = OVA-fed modulators + OVA in upper well
[9] = OVA-fed modulators in upper well without OVA

Q: With COc1ccc2c(c1)c(CC(=O)O)c(C)n2C(=O)c1ccc(Cl)cc1 [indomethacin] as the compound, how does the “effect on suppression mediated by the supernatants” value (MBP specific T-cells) read?
A: No effect on suppression

Q: For OVA: Ovalbumin purchased from Sigma, which disease severity (EAE [1]; OVA fed (1 mg, five times) plus OVA given subcutaneously after MBP/CFA, FIG. 6B) is on record?
A: 0.9±0.2

Q: What about the disease severity (EAE [1]; OVA fed and KLH given subcutaneously (control group), FIG. 6B) of the same compound?
A: 3.9±0.1

Q: And the disease severity (EAE [1]; animals fed OVA in whom KLH was given after MBP/CFA plus OVA subcutaneously, FIG. 6C, two values 'respectively')?
A: 3.7±0.1 and 3.8±0.2

Q: And the “dose of secondary antigen given subcutaneously at which suppression of EAE occurred” value (EAE [1]; fed antigen, same antigen subcutaneously after MBP/CFA)?
A: 50 µg

Q: What about the “mean maximal clinical disease severity” value (EAE [1]; not fed, OVA given subcutaneously in footpad 8 hours after MBP/CFA, FIG. 6A) of the same compound?
A: 3.8±0.1

Q: What about the “Percent Suppression” value (MBP line; [8]) of the same compound?
A: 47%

Q: And the Δ cpm (MBP line; [8])?
A: 37,778 ± 3,780 cpm

Q: And the “Percent Suppression” value (MBP line; [9])?
A: 6%

Q: What about the Δ cpm (MBP line; [9]) of the same compound?
A: 67,075 ± 2,904 cpm

Q: And the “adoptive transfer of protection by spleen cells from fed animals” value (EAE [2])?
A: adoptively transferred protection

Q: And the “TGF-β in the active form” value (TGF-β)?
A: 65±9%

Q: What about the “amount of TGF-β” value (TGF-β; serum-free) of the same compound?
A: 6.1 ± 1.0 ng/mL

Q: And the “DTH response to OVA” value ([3]; OVA fed, OVA subcutaneously in association with MBP/CFA)?
A: did not generate an immune response to OVA

Q: And the “DTH responses to MBP” value ([3]; fed antigen, then immunized with MBP/CFA plus OVA, FIG. 7)?
A: Suppressed DTH responses to MBP

Q: How did the “rheumatoid arthritis symptoms (joint tenderness, AM stiffness, grip strength)” value [4] turn out when collagen was run?
A: successfully suppressed

Q: “guinea pig MBP 71-90: peptide spanning residue 71-90 of guinea pig MBP, the immunodominant epitope (SLPQKSQRSQDENPVVHFFK; UniProt P25188 71-90, looked up, fragment)” was tested. Which “triggering suppression of proliferation in the transwell system” value (OVA (responder) line) did it give?
A: ineffective in triggering suppression

Q: And the “suppression of EAE induced with whole guinea pig MBP” value (EAE [5])?
A: effective in suppressing EAE

Q: And the “down-regulation of EAE induced by guinea pig MBP 71-90” value (EAE [6])?
A: equally effective in down-regulating EAE

Q: And the “DTH responses to guinea pig MBP peptide 71-90” value (DTH responses)?
A: suppressed

Q: And the “DTH responses to whole MBP” value (DTH responses)?
A: suppressed

Q: What about the “induction of killer T-cells (proliferation)” value [7] of the same compound?
A: by far the most efficient inducer of killer T-cells
